Experimental data as given in ChEMBL document CHEMBL1134815, “3,3a-Dihydropyrano[4,3,2-de]quinazolin-2(1H)-ones are potent non-nucleoside reverse transcriptase inhibitors” (Bioorg Med Chem Lett, 2001).

Experiments:
[1] = system: Human immunodeficiency virus type 1 reverse transcriptase (Human immunodeficiency virus 1), Q72547 [K103N]
Description: Inhibitory concentration against wild-type virus K103N and HIV-1 RT mutant in a whole cell antiviral assay

[2] = molecular target: Human immunodeficiency virus type 1 reverse transcriptase (Human immunodeficiency virus 1, UniProt Q72547); assay: Tested for inhibitory concentration against HIV-1 non-nucleoside reverse transcriptase
[3] = molecular target: Human immunodeficiency virus type 1 reverse transcriptase (Human immunodeficiency virus 1) (UniProt Q72547)
Description: Inhibitory concentration against HIV-1 reverse transcriptase

[4] = system: HIV-1 reverse transcriptase (Human immunodeficiency virus 1); assay: Inhibitory concentration against wild-type virus K103N/[…] and HIV-1 RT double mutant in whole cell antiviral assay
[5] = system: HIV-1 reverse transcriptase (Human immunodeficiency virus 1); assay: Inhibitory concentration against wild-type virus K103N/[…] and HIVdouble mutant in a whole cell antiviral assay
[6] = system: HIV-1 reverse transcriptase (Human immunodeficiency virus 1); assay: Inhibitory concentration against wild-type virus K103N mutant in a whole cell antiviral assay

SMILES	IC90 [1] [nM]	IC50 [2] [nM]	IC90 [3] [nM]	IC90 [4] [nM]	IC90 [5] [nM]	IC90 [6] [nM]
O=C1Nc2ccc(Cl)c3c2C(C(F)(F)F)(C=C(C2CC2)O3)N1 (stereo unspecified)	76	90	3.6	–	–	–
O=C1Nc2ccc(Cl)c(O)c2C(C#CC2CC2)(C(F)(F)F)N1 (stereo unspecified)	28	54	3.6	3020	–	–
O=C1Nc2ccc(Cl)c3c2C(C(F)(F)F)(C=C(c2ccccc2)O3)N1 (stereo unspecified)	46	244	8.2	1660	–	–
O=C1Nc2ccc(Cl)c(O)c2C(C#Cc2ccccc2)(C(F)(F)F)N1 (stereo unspecified)	30	174	6.8	1940	–	–
COc1c(Cl)ccc2c1C(C#Cc1cccnc1)(C(F)(F)F)NC(=O)N2 (stereo unspecified)	147	139	7.1	2540	–	–
O=C1Nc2ccc(Cl)cc2C(C#Cc2ccccc2)(C(F)(F)F)N1 (stereo unspecified)	7	–	–	–	–	–
Fc1ccc2c3c1S/C(=C\c1cccnc1)C3(C(F)(F)F)NC(S)=N2 (stereo unspecified)	84	–	7	–	–	–
COc1c(Cl)ccc2c1C(C#Cc1ccccc1)(C(F)(F)F)NC(=O)N2 (stereo unspecified)	113	144	7.9	5520	–	–
O=C1Nc2ccc(Cl)c3c2C(C(F)(F)F)(C=C(c2cccnc2)O3)N1 (stereo unspecified)	76	122	4.6	897	–	–
O=C1Nc2ccc(Cl)cc2[C@@](/C=C/C2CC2)(C(F)(F)F)N1	–	–	–	–	1690	27
COc1c(Cl)ccc2c1C(C#CC1CC1)(C(F)(F)F)NC(=O)N2 (stereo unspecified)	7.5	70	3.5	–	–	–
O=C1Nc2ccc(Cl)cc2[C@@](C#CC2CC2)(C(F)(F)F)N1	–	–	–	1100	–	–
